# Laboratory results reported in ChEMBL document CHEMBL1123061, “Potentiation of fasciolicidal agents by benzoyl side chains. Synthesis of benzoylsalicylanilides” (1985).
# Tested on: Fasciola hepatica
# Experiment: In vivo for fasciolicidal activity against Fasciola hepatica infections in rats following s.c. administration.
row,SMILES,Dose [mg/kg]
1,Cc1cc(C(=O)c2ccc(Cl)cc2)cc(C(=O)Nc2cc(Cl)cc(Cl)c2)c1O,100
2,Cc1cc(C(=O)c2ccc(Cl)cc2)cc(C(=O)Nc2ccc(Br)cc2C(F)(F)F)c1O,6.3
3,O=C(c1ccc(Cl)cc1)c1ccc(O)c(C(=O)Nc2ccc([N+](=O)[O-])cc2Cl)c1,25
4,Cc1cc(C(=O)c2ccc(Cl)c(Cl)c2)cc(C(=O)Nc2ccc([N+](=O)[O-])cc2Cl)c1O,3.1
5,Cc1cc(C(=O)c2ccc(Br)cc2)cc(C(=O)Nc2ccc([N+](=O)[O-])cc2Cl)c1O,3.1
6,Cc1cc(C(=O)c2ccc([N+](=O)[O-])cc2)cc(C(=O)Nc2ccc(Cl)cc2Cl)c1O,12.5
7,Cc1cc(C(=O)c2ccc(Cl)cc2)cc(C(=O)Nc2ccc([N+](=O)[O-])cc2Cl)c1O,6.3
8,Cc1cc(Cc2ccccc2)cc(C(=O)Nc2ccc(Cl)cc2Cl)c1O,100
9,Cc1cc(C(=O)c2ccc(C#N)cc2)cc(C(=O)Nc2ccc([N+](=O)[O-])cc2Cl)c1O,6.3
10,Cc1cc(C(=O)c2ccc(Cl)cc2)cc(C(=O)Nc2ccc([N+](=O)[O-])cc2C(F)(F)F)c1O,6.3
11,Cc1c(C(=O)c2ccc(Cl)cc2)cc(C(C)(C)C)c(O)c1C(=O)Nc1ccc([N+](=O)[O-])cc1Cl,1.6
12,Cc1cc(C(=O)c2ccc(Cl)cc2)cc(C(=O)Nc2ccc(C#N)cc2)c1O,100
13,Cc1cc(C(=O)c2ccc(Br)cc2)cc(C(=O)Nc2ccc(Cl)cc2Cl)c1O,100
14,Cc1cc(C(=O)c2ccc([N+](=O)[O-])cc2)cc(C(=O)Nc2ccc([N+](=O)[O-])cc2Cl)c1O,6.3
15,Cc1cc(C(=O)c2ccc(Cl)cc2)cc(C(=O)Nc2ccc([N+](=O)[O-])cc2Br)c1O,3.1
16,Cc1cc(C(=O)c2ccc(Cl)cc2Cl)cc(C(=O)Nc2ccc([N+](=O)[O-])cc2Cl)c1O,6.3
17,Cc1cc(C(=O)c2ccc(Cl)cc2)cc(C(=O)Nc2ccc(Cl)c(Cl)c2)c1O,100
18,Cc1cc(C(=O)c2ccc(I)cc2)cc(C(=O)Nc2ccc([N+](=O)[O-])cc2Cl)c1O,12.5
19,Cc1cc(Oc2ccccc2)cc(C(=O)Nc2ccc(Cl)cc2Cl)c1O,100
20,Cc1cc(C(=O)c2ccc(Cl)cc2)c(C)c(C(=O)Nc2ccc([N+](=O)[O-])cc2Cl)c1O,3.1
21,O=C(Nc1ccc(Oc2ccc(Cl)cc2)c(Cl)c1)c1cc(I)cc(I)c1O [RAFOXANIDE],12.5
